Results on three molecules are retold here after patent publication US20070016978A1, “PLANTS HAVING AN ENHANCED RESISTANCE TO NECROTROPHIC PATHOGENS AND METHOD OF MAKING SAME” (priority 2005, published 2007).

For assay [1], the system named is C. higginsianum. Kind of assay: Growth of C. higginsianum in liquid Fries minimal medium. In kind it is cell-based, Colletotrichum higginsianum. The conditions noted are these: G3P added in minimal medium containing a preferred carbon source like sucrose or glycerol; 10 mM G3P, 5 days, 30° C. The source says:
(§1) Several lines of evidence point to G3P levels as being of primary importance. […] Secondly, the gli1 and gly1 plants, with lower levels of G3P, are slightly more susceptible to C. higginsianum.

The test system of assay [2] is C. higginsianum. Briefly: Anthracnose lesion development on Arabidopsis leaves infiltrated with G3P before infection. In kind it is in vivo. To be noted: infiltration of G3P into Arabidopsis leaves prior to infection. How it is done: as §1
Inoculation with Peronospora parasitica Emco5 is conducted as described in Kachroo et al., 2001. Inoculation with Colletotrichum higginssianum is carried out by spraying the spores at a concentration of […] and spot inoculating at a concentration of 104-105/ml. After inoculation, the plants are covered with a transparent plastic dome and kept in a growth chamber at 22° C., 65% relative humidity and 14 hour photoperiod. Infections are evaluated every day and scored for disease at 4-6 dpi. Inoculation with Pseudomonas syringae is conducted as described in Shah et al., 2001.

A further assay has as its system PDF1.2 gene. Briefly: PDF1.2 gene expression in response to JA (RNA gel blot). In kind it is in vivo, Arabidopsis. The conditions noted are these: ssi2 fad7 and ssi2 fad7 fad8 plants, 50 μM JA, 48 h post treatment. How it is done:
Small-scale extraction of RNA from one or two leaves is performed in the TRIzol reagent (Invitrogen, Gaithersburg, Md.) following the manufacturer's instructions. Northern blot analysis and synthesis of random primed probes for PR-1, PR-2 and PDF1.2 are carried out as described in Kachroo et al., 2001.
(§2) JA treatments are carried out as described in Kachroo et al., 2001.
FIGS. 5(A)-5(I) illustrate glycerol-mediated effects on mutants impaired in various fatty add desaturation (fad) steps and double mutant analysis of ssi2 in different fad backgrounds. […] RNA gel blot analysis was performed on […] of total RNA extracted from 4-week-old soil-grown plants. Ethidium bromide staining of rRNA was used as a loading control. […] The values presented are averages of three replicates. FIG. 5(D) is a plot showing glycerol-induced changes in the 18:1 levels in leaf tissue of four-week-old plants. The ssi2 gly1 and ssi2 act1 plants were used as controls. […] FIG. 5(F) comprises a series of microscopies of trypan blue-stained leaves from ssi2 and various ssi2 fad double- and triple-mutant plants. FIG. 5(G) illustrates expression of the PR-1 and PR-2 genes in wt, ssi2, and various ssi2 fad double and triple mutant plants. […] Samples were harvested 48 h post treatment and analyzed by RNA gel blot analysis performed on 7 μg of total RNA. […]

A further assay deals with SA and SAG levels. Kind of assay: Endogenous SA and SAG levels in leaves of glycerol-treated plants. The conditions noted are these: for induction in SA levels / induction in the SAG levels: glycerol- versus water-treated, 50 mM glycerol. In kind it is in vivo, Arabidopsis. Here is the method: (§3) SA and SA glucoside (SAG) are extracted and measured from 0.2-0.3 g of fresh weight leaf tissue, as described in Chandra-Shekara et al., 2004. FA analysis is carried out as described in Dahmer et al., 1989; and He et al., 2002. Lipids are extracted as described in Welti et al., 2002. Lipid profiles and acyl group identification are carried out using an automated electrospray ionization-tandem mass spectrometry facility available at the Kansas Lipidomics Center.
as §2
(§4) Ethidium bromide staining of rRNA used as a loading control. FIG. 3(D) is a graph showing growth of P. parasitica biotype Emco5 on various plant genotypes listed at the left. The Landsberg (Ler) ecotype used as the resistant control. […] The shade of each box indicates the severity of infection, based on the number of sporangiophores per cotyledon (see key at the right). FIG. 3(E) is a plot showing glycerol-induced changes in the 18:1 levels in leaf tissue of 4-week-old plants.

The test system of another assay is 18:1 levels. Briefly: Leaf 18:1 content after glycerol application (GC). To be noted: wt and plants impaired in the SA signaling pathway, three days after glycerol application. In kind it is in vivo, Arabidopsis. How it is done: as §3, §2, §4
For assay [3], the system named is Peronospora parasitica biotype Emco5. To be noted: glycerol-treated npr1 plants, glycerol 72 h prior to inoculation.
In a further assay the test system is PR-1 gene. The conditions noted are these: exogenous application on wt plants; cited from earlier work.

In the case of `O=P(O)(O)OCC(O)CO` (centres unmarked) [G3P, glycerol-3-phosphate], the “inhibition of fungal growth” value in the assay on C. higginsianum [1] is reported as around 3 fold. For the same molecule, in the assay on C. higginsianum [2], the “necrosis triggered by the fungus at the site of entry” value was “significantly reduced necrosis”.
Turning to `CC/C=C\C[C@H]1C(=O)CC[C@@H]1CC(=O)O` [JA, jasmonic acid], in the assay on PDF1.2 gene, the PDF1.2 expression result is listed as “basal level expression of PDF1.2”.
`OCC(O)CO` [glycerol]: the “induction in SA levels” value in the assay with SA and SAG levels (Columbia-O (Col-O) plants) is reported as 13 fold; in the assay on SA and SAG levels (Nossen (No) plants), 10 fold. Besides, the “induction in the SAG levels” value in the assay on SA and SAG levels (Columbia-O (Col-O) plants) was 10 fold; in the assay with SA and SAG levels (Nossen (No) plants), 8 fold. Further, the “SA levels upon glycerol treatment, lower than in wt plants” value in the assay on SA and SAG levels (fad7 and fad7 fad8 plants versus glycerol-treated wt) was found to be 3 fold. Moreover, in the assay with 18:1 levels, the “leaf 18:1 levels” value is on record as “drastic reduction in their 18:1 levels”. Moreover, the “reduction in the number of susceptible plants” value in assay [3] is listed as “about 60%”. For the same molecule, the PR-1 gene expression result with PR-1 gene was “induction of PR-1 gene expression”.
